Test results from patent publication US12643881B2, “Bicyclic amine CDK12 inhibitors” (Incyte Corporation, priority 2021, dated 2026).

Molecular target: T1, CDK12 complexed with Cyclin K (Homo sapiens, UniProt Q9NYV4)
T1 construct: GST (N)
Test: Alternative CDK Enzymatic Assays (HTRF, pre-incubation with compounds and 1 mM ATP), Example A2
Type: biochemical
Conditions: enzyme pre-incubated with compounds and 1 mM ATP for 60 minutes; reaction 120 minutes at 25° C.
Text: Example A2. Alternative CDK Enzymatic Assays
The following activity of the CDK enzymes in complex with their respective cyclins we assayed: CDK1 complexed with Cyclin B1; CDK2 complexed with Cyclin E1; CDK4 complexed with Cyclin D1; CDK6 complexed with Cyclin D1; CDK6 complexed with Cyclin D3; CDK9 complexed with Cyclin T1; CDK7 complexed with Cyclin H/MAT1; CDK2 complexed with Cyclin A2; CDK5 complexed with p35; CDK12 complexed with Cyclin K; CDK13 complexed with Cyclin K. These in vitro enzyme activity are assayed using homogeneous time-resolved energy transfer (HTRF), which measures phosphorylation of a peptide substrate. The LANCER Ultra kinase assay (PerkinElmer) uses a ULight™-labeled EIF4E-binding protein 1 (THR37/46) peptide (DYSTTPGGTLFSTTPGTRI (SEQ ID NO: 1)) substrate and a Europium-labeled anti-phospho-4E-BP1 antibody (CDK2, CDK1, CDK4, CDK6, CDK9, CDK12, CDK13) or ULight™-labeled Myelin Basic Protein peptide (VTPRTPPP (SEQ ID NO: 2)) substrate and a Europium-labeled anti-phospho-MBP antibody (CDK7). Each CDK enzyme activity assays utilized human CDK co-expressed as N-terminal GST-tagged protein with its full length cyclin partner using a baculovirus expression system.
Enzyme was pre-incubated with compounds and 1 mM ATP for 60 minutes (CDK 1, 2, 4, 6, 9, 7, 12, 13) prior to the addition of ATP and Ulight-peptide (1 mM and 50 nM final, respectively), in assay buffer containing 50 mM HEPES pH 7.5, 1 mM EGTA, 10 mM MgCl2, 2 mM DTT, 0.05 mg/mL BSA, and 0.01% Tween 20. The reaction was then incubated for 120 minutes at 25° C. incubator. The reactions were stopped by the addition of EDTA and Europium labeled antibody, for a final concentration of 15 mM and 0.5-1.5 nM, respectively. HTRF signals were read after 15-120 minutes. A ratio of fluorescence transferred to the labeled substrate (665 nm) relative to fluorescence of the Europium donor (620 nm) represents the extent of phosphorylation. Ratios for treated wells were normalized to DMSO only (100% activity) and no enzyme (0% activity) controls. Normalized data was analyzed using a three or four parameter dose response curve to determine IC50 for each compound and are shown in Table B. Control reference inhibitors were included on each plate.

T1 sequence (Q9NYV4 whole entry): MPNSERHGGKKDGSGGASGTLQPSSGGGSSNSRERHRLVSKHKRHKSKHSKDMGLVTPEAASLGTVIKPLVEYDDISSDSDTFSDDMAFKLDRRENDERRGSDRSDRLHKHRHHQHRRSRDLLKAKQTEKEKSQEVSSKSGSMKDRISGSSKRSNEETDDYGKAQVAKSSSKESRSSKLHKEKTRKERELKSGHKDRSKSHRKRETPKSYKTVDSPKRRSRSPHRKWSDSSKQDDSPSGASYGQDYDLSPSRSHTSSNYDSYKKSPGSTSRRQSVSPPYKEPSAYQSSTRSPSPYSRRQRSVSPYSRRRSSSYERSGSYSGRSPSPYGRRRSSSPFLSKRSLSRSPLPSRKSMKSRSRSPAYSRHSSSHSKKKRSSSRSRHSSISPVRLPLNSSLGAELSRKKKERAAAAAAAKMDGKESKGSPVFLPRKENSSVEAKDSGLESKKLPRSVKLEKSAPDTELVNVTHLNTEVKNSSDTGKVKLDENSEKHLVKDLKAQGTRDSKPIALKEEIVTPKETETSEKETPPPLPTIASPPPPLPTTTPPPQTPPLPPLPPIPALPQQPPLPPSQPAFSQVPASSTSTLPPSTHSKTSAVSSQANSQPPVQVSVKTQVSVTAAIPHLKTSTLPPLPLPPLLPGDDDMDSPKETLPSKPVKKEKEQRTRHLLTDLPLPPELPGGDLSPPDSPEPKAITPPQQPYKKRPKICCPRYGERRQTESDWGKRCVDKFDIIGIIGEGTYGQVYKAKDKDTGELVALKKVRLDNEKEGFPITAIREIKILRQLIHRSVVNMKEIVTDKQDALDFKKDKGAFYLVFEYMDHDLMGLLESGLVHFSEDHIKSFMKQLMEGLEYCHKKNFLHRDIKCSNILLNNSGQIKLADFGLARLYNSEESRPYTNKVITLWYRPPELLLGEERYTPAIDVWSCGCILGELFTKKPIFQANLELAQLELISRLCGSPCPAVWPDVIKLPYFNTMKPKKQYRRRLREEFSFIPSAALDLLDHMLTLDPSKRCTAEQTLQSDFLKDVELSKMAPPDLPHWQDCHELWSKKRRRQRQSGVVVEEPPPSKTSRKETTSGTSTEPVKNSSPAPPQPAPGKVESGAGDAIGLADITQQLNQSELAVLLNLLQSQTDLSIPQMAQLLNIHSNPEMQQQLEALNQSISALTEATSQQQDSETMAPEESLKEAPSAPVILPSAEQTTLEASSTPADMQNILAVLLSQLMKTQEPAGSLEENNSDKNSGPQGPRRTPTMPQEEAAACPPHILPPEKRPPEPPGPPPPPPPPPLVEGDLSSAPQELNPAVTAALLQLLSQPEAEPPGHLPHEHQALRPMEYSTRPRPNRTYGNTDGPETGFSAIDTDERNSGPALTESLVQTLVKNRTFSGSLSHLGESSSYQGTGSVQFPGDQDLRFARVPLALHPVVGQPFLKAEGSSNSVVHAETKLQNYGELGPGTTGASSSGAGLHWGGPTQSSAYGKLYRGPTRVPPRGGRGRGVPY
T1 sequence (O75909 whole entry partner): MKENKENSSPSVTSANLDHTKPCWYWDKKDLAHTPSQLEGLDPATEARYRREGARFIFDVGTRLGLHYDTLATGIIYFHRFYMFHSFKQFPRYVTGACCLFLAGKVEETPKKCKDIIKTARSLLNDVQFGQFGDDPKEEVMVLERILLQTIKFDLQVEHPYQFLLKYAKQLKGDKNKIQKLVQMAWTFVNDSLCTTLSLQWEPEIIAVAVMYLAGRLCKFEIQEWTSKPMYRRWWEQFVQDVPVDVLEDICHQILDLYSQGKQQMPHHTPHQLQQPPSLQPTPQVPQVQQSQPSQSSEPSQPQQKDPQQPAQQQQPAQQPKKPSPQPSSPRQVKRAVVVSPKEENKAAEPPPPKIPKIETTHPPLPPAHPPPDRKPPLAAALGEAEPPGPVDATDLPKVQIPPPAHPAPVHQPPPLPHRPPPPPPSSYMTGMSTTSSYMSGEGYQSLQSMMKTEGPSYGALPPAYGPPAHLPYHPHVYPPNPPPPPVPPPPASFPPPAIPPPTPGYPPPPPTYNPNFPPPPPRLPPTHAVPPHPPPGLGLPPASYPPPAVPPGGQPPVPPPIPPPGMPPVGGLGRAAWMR

Compound	IC50
C=CC(=O)N[C@@H]1CCN(c2nccn3c(N4C[C@H](F)C[C@@H](Nc5ncc(C(F)(F)F)cn5)C4)ncc23)C1 [Example 86, N—((R)-1-(3-((3R,5R)-3-Fluoro-5-((5-(trifluoromethyl)pyrimidin-2-yl)amino)piperidin-1-yl)imidazo[1,5-a]pyrazin-8-yl)pyrrolidin-3-yl)acrylamide]	50 to 500 nM
C=CC(=O)Nc1ccc2c(c1)nc(N1C[C@H](O)C[C@@H](Nc3ncc(C#N)cn3)C1)n2C [Example 122, N-(2-((3R,5R)-3-((5-Cyanopyrimidin-2-yl)amino)-5-hydroxypiperidin-1-yl)-1-methyl-1H-benzo[d]imidazol-5-yl)acrylamide]	< 50 nM
C=CC(=O)N1CCCCC1c1ccc2c(c1)nc(N1C[C@H](O)C[C@@H](Nc3ncc(C(F)(F)F)cn3)C1)n2C (stereo partly drawn) [Example 87, 1-(2-(2-((3R,5R)-3-Hydroxy-5-((5-(trifluoromethyl)pyrimidin-2-yl)amino)piperidin-1-yl)-1-methyl-1H-benzo[d]imidazol-5-yl)piperidin-1-yl)prop-2-en-1-one]	50 to 500 nM
C=CC(=O)Nc1cc2nc(N3C[C@H](F)C[C@@H](Nc4ncc(C#N)c(CC)n4)C3)n(C)c2cc1C [Example 161, N-(2-((3R,5R)-3-((5-Cyano-4-ethylpyrimidin-2-yl)amino)-5-fluoropiperidin-1-yl)-1,6-dimethyl-1H-benzo[d]imidazol-5-yl)acrylamide]	< 50 nM
Cc1cc2c(cc1NC(=O)C#CCO)nc(N1C[C@H](F)C[C@@H](Nc3ncc(C(F)(F)F)cn3)C1)n2C [Example 115, N-(2-((3R,5R)-3-Fluoro-5-((5-(trifluoromethyl)pyrimidin-2-yl)amino)piperidin-1-yl)-1,6-dimethyl-1H-benzo[d]imidazol-5-yl)-4-hydroxybut-2-ynamide]	< 50 nM
C=CC(=O)N1CCN(c2ccc3c(c2)nc(N2CCC[C@@H](Nc4ncc(C(F)(F)F)cn4)C2)n3C)CC1 [Example 128, (R)-1-(4-(1-Methyl-2-(3-((5-(trifluoromethyl)pyrimidin-2-yl)amino)piperidin-1-yl)-1H-benzo[d]imidazol-5-yl)piperazin-1-yl)prop-2-en-1-one]	50 to 500 nM
C=CC(=O)Nc1c(C(C)C)cc2c(nc(N3CCC[C@@H](Nc4ncc(C(F)(F)F)cn4)C3)n2C)c1C [Example 155, (R)—N-(6-Isopropyl-1,4-dimethyl-2-(3-((5-(trifluoromethyl)pyrimidin-2-yl)amino)piperidin-1-yl)-1H-benzo[d]imidazol-5-yl)acrylamide]	< 50 nM
N-(2-((3R,5R)-3-Hydroxy-5-((5-(trifluoromethyl)pyrimidin-2-yl)amino)piperi-dine-1-yl)-1,6-dimethyl-1H-benzo[d]imidazol-5-yl)acrylamide [Example 94]	50 to 500 nM
C=CC(=O)Nc1ccc2c(c1)nc(N1C[C@H](Nc3ncc(C(F)(F)F)cn3)CC(F)(F)C1)n2C [Example 124, (R)—N-(2-(3,3-Difluoro-5-((5-(trifluoromethyl)pyrimidin-2-yl)amino)piperidin-1-yl)-1-methyl-1H-benzo[d]imidazol-5-yl)acrylamide]	< 50 nM
C=CC(=O)Nc1ccc2c(c1)nc(N1CCC[C@@H](Nc3ncc(C#N)cn3)C1)n2C [Example 143, (R)—N-(2-(3-((5-Cyanopyrimidin-2-yl)amino)piperidin-1-yl)-1-methyl-1H-benzo[d]imidazol-5-yl)acrylamide]	< 50 nM
C=CC(=O)Nc1ccc2c(c1)nc(N1CCC[C@@H](Nc3ncc(C(F)(F)F)cn3)C1)n2C [Example 123, (R)—N-(1-Methyl-2-(3-((5-(trifluoromethyl)pyrimidin-2-yl)amino)piperidin-1-yl)-1H-benzo[d]imidazol-5-yl)acrylamide]	< 50 nM
C=CC(=O)Nc1cc2nc(N3CC[C@@H](O)[C@@H](Nc4ncc(C(F)(F)F)cn4)C3)n(C)c2cc1C [Example 148, N-(2-((3S,4R)-4-Hydroxy-3-((5-(trifluoromethyl)pyrimidin-2-yl)amino)piperidin-1-yl)-1,6-dimethyl-1H-benzo[d]imidazol-5-yl)acrylamide]	> 500 nM

Results, then the compound that gave them:

IC50	Compound
< 50 nM	C=CC(=O)Nc1cc2nc(N3CCC[C@@H](Nc4ncc(C(F)(F)F)cn4)C3)n(C)c2cc1OC [Example 166, (R)—N-(6-Methoxy-1-methyl-2-(3-((5-(trifluoromethyl)pyrimidin-2-yl)amino)piperidin-1-yl)-1H-benzo[d]imidazol-5-yl)acrylamide]
50 to 500 nM	C=C(F)C(=O)Nc1cc2nc(N3C[C@H](F)C[C@@H](Nc4ncc(C(F)(F)F)cn4)C3)n(C)c2cc1C [Example 117, 2-Fluoro-N-(2-((3R,5R)-3-fluoro-5-((5-(trifluoromethyl)pyrimidin-2-yl)amino)piperidin-1-yl)-1,6-dimethyl-1H-benzo[d]imidazol-5-yl)acrylamide]
< 50 nM	C=CC(=O)Nc1cc2nc(N3C[C@H](F)C[C@@H](Nc4ncc(C(F)(F)F)cn4)C3)n(C)c2cc1Br [Example 141, N-(6-Bromo-2-((3R,5R)-3-fluoro-5-((5-(trifluoromethyl)pyrimidin-2-yl)amino)piperidin-1-yl)-1-methyl-1H-benzo[d]imidazol-5-yl)acrylamide]
50 to 500 nM	C=CC(=O)Nc1cc2nc(N3C[C@H](F)C[C@@H](Nc4ncc(C(F)(F)F)cn4)C3)n(C)c2cc1C(=O)N1CCOCC1 [Example 137, N-(2-((3R,5R)-3-Fluoro-5-((5-(trifluoromethyl)pyrimidin-2-yl)amino)piperidin-1-yl)-1-methyl-6-(morpholine-4-carbonyl)-1H-benzo[d]imidazol-5-yl)acrylamide]
< 50 nM	C=CC(=O)Nc1cc2nc(N3CCC[C@@H](Nc4ncc(C(F)(F)F)cn4)C3)n(C)c2cc1C [Example 102, (R)—N-(1,6-Dimethyl-2-(3-((5-(trifluoromethyl)pyrimidin-2-yl)amino)piperidin-1-yl)-1H-benzo[d]imidazol-5-yl)acrylamide]
< 50 nM	C=CC(=O)Nc1cc2nc(N3C[C@H](F)C[C@@H](Nc4ncc(C(F)(F)F)cn4)C3)n(C)c2cc1F [Example 132, N-(6-Fluoro-2-((3R,5R)-3-fluoro-5-((5-(trifluoromethyl)pyrimidin-2-yl)amino)piperidin-1-yl)-1-methyl-1H-benzo[d]imidazol-5-yl)acrylamide]
50 to 500 nM	COC/C=C/C(=O)Nc1cc2nc(N3C[C@H](F)C[C@@H](Nc4ncc(C(F)(F)F)cn4)C3)n(C)c2cc1C [Example 121, (E)-N-(2-((3R,5R)-3-Fluoro-5-((5-(trifluoromethyl)pyrimidin-2-yl)amino)piperidin-1-yl)-1,6-dimethyl-1H-benzo[d]imidazol-5-yl)-4-methoxybut-2-enamide]
> 500 nM	C=CC(=O)Nc1c(C)cc2c(nc(N3C[C@H](F)C[C@@H](Nc4ncc(C(F)(F)F)cn4)C3)n2C)c1C [Example 144, N-(2-((3R,5R)-3-Fluoro-5-((5-(trifluoromethyl)pyrimidin-2-yl)amino)piperidin-1-yl)-1,4,6-trimethyl-1H-benzo[d]imidazol-5-yl)acrylamide]
50 to 500 nM	C=CC(=O)Nc1cc2nc(N3C[C@H](F)C[C@@H](Nc4ccc(C(F)(F)F)cn4)C3)n(C)c2cc1C [Example 159]
